The text below walks through data of patent publication US20250313572A1, “MACROCYCLIC MCL-1 INHIBITORS AND METHODS OF USE” (AbbVie Inc., priority 2017, published 2025).

Molecules are shown by their SMILES. Read-outs that look alike come from different tables or passages of the source.

In experiment [1] the test system is AMO-1 human multiple myeloma tumor cell line. Put plainly: AMO-1 cell viability assay (CellTiter-Glo, 24 hours). It is filed as cell-based. To be noted: Homo sapiens, AMO1, 24 h, read-out: AMO-1 Viability IC50 (μM, 10% FBS), 10% FBS, 24 hours of compound treatment. For orientation: Cellular ATP, detected with luciferase, serves as a proxy for viable cell number.

The target of a further experiment is GST-MCL-1 (Homo sapiens, UniProt Q07820). Put plainly: TR-FRET MCL-1 binding assay (competition with probe F-Bak). Summed up:
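Displacement of F-Bak from GST-MCL-1 is detected by time-resolved FRET with a Tb-labelled anti-GST antibody, with excitation 340/35 nm and emission 520/525 and 495/510 nm, after 2 hours at room temperature. Compounds were titrated in 11 three-fold steps starting at 25 μM final, in buffer alone or in 10% HS.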
For orientation: In TR-FRET formats the signal depends on donor and acceptor labels being close together.

Experiment [2] has as its system NCI-H929 human multiple myeloma tumor cell line. Put plainly: NCI-H929 cell viability assay (CellTiter-Glo, 24 hours). Format: cell-based. To be noted: Homo sapiens, NCI-H929, 24 h, read-out: H929 Viability IC50 (μM, 10% FBS), 10% FBS, 24 hours of compound treatment.
Method: Each concentration was tested in duplicate at least 3 independent times. A luminescent signal proportional to the number of viable cells following 24 hours of compound treatment was determined using the CellTiter-Glo® Luminescent Cell Viability Assay according to the manufacturer's recommendations (Promega Corp., Madison, WI). The plates were read in a Perkin Elmer Envision using a Luminescence protocol. To generate dose response curves the data is normalized to percent viability by setting the averages of the staurosporine (10 μM) and DMSO only control wells to 0% and 100% viability respectively.
The mark [3] stands for this setting: MCL-1 Binding Ki (nM, 10% HS), in the presence of 10% HS (human serum).
[4] abbreviates: without HS, read-out: MCL-1 Binding Ki.

GST-MCL-1, sequence (Q07820 whole entry): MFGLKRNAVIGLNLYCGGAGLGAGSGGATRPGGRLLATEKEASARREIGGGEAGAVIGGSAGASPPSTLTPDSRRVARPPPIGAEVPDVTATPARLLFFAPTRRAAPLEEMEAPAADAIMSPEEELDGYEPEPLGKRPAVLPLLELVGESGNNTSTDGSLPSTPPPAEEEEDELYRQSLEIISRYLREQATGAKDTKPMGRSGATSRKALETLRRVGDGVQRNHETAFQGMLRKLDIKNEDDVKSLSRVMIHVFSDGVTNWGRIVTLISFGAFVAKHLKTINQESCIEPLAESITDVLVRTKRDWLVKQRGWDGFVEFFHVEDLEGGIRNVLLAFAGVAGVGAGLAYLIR

For orientation: IC50 means the concentration needed to halve the response being measured. For orientation: Ki means the equilibrium dissociation constant of an inhibitor or competing ligand from its target. `Cc1c(Cl)c2c(Cl)c(C)c1-c1c(-c3ccc(F)cc3)sc3ncnc(c13)O[C@@H](C(=O)O)Cc1cc(ccc1OCc1ccnc(-c3ccc(CN4CCOCCOCCOCCOCC4)cc3)n1)OC[C@@H](CN1CCN(C)CC1)O2` [Example 129, (7R,16R)-19,23-dichloro-1-(4-fluorophenyl)-20,22-dimethyl-16-[(4-methylpiperazin-1-yl)methyl]-10-[(2-{4-[(1,4,7,10-tetraoxa-13-azacyclopentadecan-13-yl)methyl]phenyl}pyrimidin-4-yl)methoxy]-7,8,15,16-tetrahydro-18,21-etheno-13,9-(metheno)-6,14,17-trioxa-2-thia-3,5-diazacyclononadeca[1,2,3-cd]indene-7-carboxylic Acid]: the 50% inhibitory concentration (IC50) came to 0.000144 µM in experiment [1] and 0.000562 µM in experiment [2]. Moreover, the results for the Ki on GST-MCL-1 (setting [3]) and at GST-MCL-1 (setting [4]) were 0.064 nM and 0.002 nM, respectively.
Consider `COCCOCCOCCO[C@H]1CC[C@H](c2nccc(COc3ccc4cc3C[C@H](C(=O)O)Oc3ncnc5sc(C6CCC6)c(c35)-c3c(C)c(Cl)c(c(Cl)c3C)O[C@H](CN3CCN(C)CC3)CO4)n2)CC1` [Example 131, (7R,16R)-19,23-dichloro-1-cyclobutyl-10-({2-[(1r,4r)-4-{2-[2-(2-methoxyethoxy)ethoxy]ethoxy}cyclohexyl]pyrimidin-4-yl}methoxy)-20,22-dimethyl-16-[(4-methylpiperazin-1-yl)methyl]-7,8,15,16-tetrahydro-18,21-etheno-13,9-(metheno)-6,14,17-trioxa-2-thia-3,5-diazacyclononadeca[1,2,3-cd]indene-7-carboxylic Acid], for which the IC50 in experiment [1] was determined as 0.000367 µM; in experiment [2], 0.000585 µM. Further, the Ki was 1.14 nM at GST-MCL-1 (setting [3]) and 0.024 nM on GST-MCL-1 (setting [4]).
In the same order, the values of `CO[C@@H]1CO[C@H]2[C@@H]1OC[C@H]2OCCOCCOc1nccc(COc2ccc3cc2C[C@H](C(=O)O)Oc2ncnc4sc(-c5ccc(F)cc5)c(c24)-c2c(C)c(Cl)c(c(Cl)c2C)O[C@H](CN2CCN(C)CC2)CO3)n1` [Example 133, (7R,16R)-19,23-dichloro-1-(4-fluorophenyl)-10-({2-[2-(2-{[(3R,3aR,6R,6aR)-6-methoxyhexahydrofuro[3,2-b]furan-3-yl]oxy}ethoxy)ethoxy]pyrimidin-4-yl}methoxy)-20,22-dimethyl-16-[(4-methylpiperazin-1-yl)methyl]-7,8,15,16-tetrahydro-18,21-etheno-13,9-(metheno)-6,14,17-trioxa-2-thia-3,5-diazacyclononadeca[1,2,3-cd]indene-7-carboxylic Acid] are 0.00324 µM, 0.00879 µM, 0.168 nM and 0.044 nM.
In the same order, the values of `CO[C@@H]1CO[C@H]2[C@@H]1OC[C@H]2OCCOc1nccc(COc2ccc3cc2C[C@H](C(=O)O)Oc2ncnc4sc(-c5ccc(F)cc5)c(c24)-c2c(C)c(Cl)c(c(Cl)c2C)O[C@H](CN2CCN(C)CC2)CO3)n1` [Example 134, (7R,16R)-19,23-dichloro-1-(4-fluorophenyl)-10-{[2-(2-{[(3R,3aR,6R,6aR)-6-methoxyhexahydrofuro[3,2-b]furan-3-yl]oxy}ethoxy)pyrimidin-4-yl]methoxy}-20,22-dimethyl-16-[(4-methylpiperazin-1-yl)methyl]-7,8,15,16-tetrahydro-18,21-etheno-13,9-(metheno)-6,14,17-trioxa-2-thia-3,5-diazacyclononadeca[1,2,3-cd]indene-7-carboxylic Acid] are 0.00304 µM, 0.01 µM, 0.339 nM and 0.047 nM.
On to `COC[C@@H](COc1ccc(-c2nccc(COc3ccc4cc3C[C@H](C(=O)O)Oc3ncnc5sc(-c6ccc(F)cc6)c(c35)-c3c(C)c(Cl)c(c(Cl)c3C)O[C@H](CN3CCN(C)CC3)CO4)n2)cc1)OC` [Example 136, (7R,16R)-19,23-dichloro-10-[(2-{4-[(25)-2,3-dimethoxypropoxy]phenyl}pyrimidin-4-yl)methoxy]-1-(4-fluorophenyl)-20,22-dimethyl-16-[(4-methylpiperazin-1-yl)methyl]-7,8,15,16-tetrahydro-18,21-etheno-9,13-(metheno)-6,14,17-trioxa-2-thia-3,5-diazacyclononadeca[1,2,3-cd]indene-7-carboxylic acid], for which the IC50 stood at 0.000403 µM in experiment [1] and 0.000392 µM in experiment [2]. The Ki on GST-MCL-1 (setting [3]) worked out at 0.758 nM; on GST-MCL-1 (setting [4]), 0.027 nM.
In the same order, the values of `COC[C@H](COc1ccc(-c2nccc(COc3ccc4cc3C[C@H](C(=O)O)Oc3ncnc5sc(-c6ccc(F)cc6)c(c35)-c3c(C)c(Cl)c(c(Cl)c3C)O[C@H](CN3CCN(C)CC3)CO4)n2)cc1)OC` [Example 137, (7R,16R)-19,23-dichloro-10-[(2-{4-[(2R)-2,3-dimethoxypropoxy]phenyl}pyrimidin-4-yl)methoxy]-1-(4-fluorophenyl)-20,22-dimethyl-16-[(4-methylpiperazin-1-yl)methyl]-7,8,15,16-tetrahydro-18,21-etheno-9,13-(metheno)-6,14,17-trioxa-2-thia-3,5-diazacyclononadeca[1,2,3-cd]indene-7-carboxylic acid] are 0.000394 µM, 0.000286 µM, 0.999 nM and 0.031 nM.
`CO[C@@H]1CO[C@H]2[C@@H]1OC[C@H]2OCCOCCOC1CCC(c2nccc(COc3ccc4cc3C[C@H](C(=O)O)Oc3ncnc5sc(-c6ccc(F)cc6)c(c35)-c3c(C)c(Cl)c(c(Cl)c3C)O[C@H](CN3CCN(C)CC3)CO4)n2)CC1` (stereo partly drawn) [Example 138, (7R,16R)-19,23-dichloro-1-(4-fluorophenyl)-10-[(2-{(1r,4r)-4-[2-(2-{[(3R,3aR,6R,6aR)-6-methoxyhexahydrofuro[3,2-b]furan-3-yl]oxy}ethoxy)ethoxy]cyclohexyl}pyrimidin-4-yl)methoxy]-20,22-dimethyl-16-[(4-methylpiperazin-1-yl)methyl]-7,8,15,16-tetrahydro-18,21-etheno-13,9-(metheno)-6,14,17-trioxa-2-thia-3,5-diazacyclononadeca[1,2,3-cd]indene-7-carboxylic Acid]: the 50% inhibitory concentration (IC50) was found to be 0.002 µM in experiment [1] and 0.00221 µM in experiment [2]. Moreover, the Ki at GST-MCL-1 (read-out: MCL-1 Binding Ki (nM, 10% HS), in the presence of 10% HS (human serum)) worked out at 0.049 nM; at GST-MCL-1 (setting [4]), 0.007 nM.
Turning to `COCCOCCOCC1CN(c2nccc(COc3ccc4cc3C[C@H](C(=O)O)Oc3ncnc5sc(-c6ccc(F)cc6)c(c35)-c3c(C)c(Cl)c(c(Cl)c3C)O[C@H](CN3CCN(C)CC3)CO4)n2)C1` [Example 139, (7R,16R)-19,23-dichloro-1-(4-fluorophenyl)-10-{[2-(3-{[2-(2-methoxyethoxy)ethoxy]methyl}azetidin-1-yl)pyrimidin-4-yl]methoxy}-20,22-dimethyl-16-[(4-methylpiperazin-1-yl)methyl]-7,8,15,16-tetrahydro-18,21-etheno-9,13-(metheno)-6,14,17-trioxa-2-thia-3,5-diazacyclononadeca[1,2,3-cd]indene-7-carboxylic Acid], the IC50 in experiment [1] is 0.00231 µM; in experiment [2], 0.00307 µM. Further, the Ki on GST-MCL-1 (setting [3]) was found to be 1.21 nM; on GST-MCL-1 (setting [4]), 0.147 nM.
